Laboratory results from patent US20200000752A1, “Method for Treating Epilepsy” (Vanderbilt University, priority 2016, published 2020).
Entries after “also recorded” stand apart in the source; their conditions may differ.

How the values were obtained:
Scn1a^+/− mice = conditions: for Number SWDs: SWDs over 1 sec, 30 min after PTZ 50 mg/kg, n=2, celastrol 0.3 mg/kg intermittent (8th day of drug holiday), diazepam 0.3 mg/kg, stiripentol 150 mg/kg, saline 21
CYP 2C19 [1] = target: T1, CYP 2C19 (Homo sapiens, UniProt P33261)
T1 sequence (P33261 whole entry): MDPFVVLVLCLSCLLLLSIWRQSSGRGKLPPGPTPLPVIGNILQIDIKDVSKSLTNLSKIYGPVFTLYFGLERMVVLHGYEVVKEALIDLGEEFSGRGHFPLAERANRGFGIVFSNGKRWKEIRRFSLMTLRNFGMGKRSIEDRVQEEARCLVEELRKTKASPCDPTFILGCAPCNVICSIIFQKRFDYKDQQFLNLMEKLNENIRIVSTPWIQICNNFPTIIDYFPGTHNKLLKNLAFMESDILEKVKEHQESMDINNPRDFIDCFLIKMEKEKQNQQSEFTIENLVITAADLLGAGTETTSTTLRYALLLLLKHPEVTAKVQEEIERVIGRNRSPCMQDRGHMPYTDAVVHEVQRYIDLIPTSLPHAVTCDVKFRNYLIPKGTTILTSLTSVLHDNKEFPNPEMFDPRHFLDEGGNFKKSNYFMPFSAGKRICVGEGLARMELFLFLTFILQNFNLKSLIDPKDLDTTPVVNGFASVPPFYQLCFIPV

CYP 1A2 [2] = target: T2, CYP 1A2 (Homo sapiens, UniProt P05177); assay: biochemical
T2 sequence (P05177 whole entry): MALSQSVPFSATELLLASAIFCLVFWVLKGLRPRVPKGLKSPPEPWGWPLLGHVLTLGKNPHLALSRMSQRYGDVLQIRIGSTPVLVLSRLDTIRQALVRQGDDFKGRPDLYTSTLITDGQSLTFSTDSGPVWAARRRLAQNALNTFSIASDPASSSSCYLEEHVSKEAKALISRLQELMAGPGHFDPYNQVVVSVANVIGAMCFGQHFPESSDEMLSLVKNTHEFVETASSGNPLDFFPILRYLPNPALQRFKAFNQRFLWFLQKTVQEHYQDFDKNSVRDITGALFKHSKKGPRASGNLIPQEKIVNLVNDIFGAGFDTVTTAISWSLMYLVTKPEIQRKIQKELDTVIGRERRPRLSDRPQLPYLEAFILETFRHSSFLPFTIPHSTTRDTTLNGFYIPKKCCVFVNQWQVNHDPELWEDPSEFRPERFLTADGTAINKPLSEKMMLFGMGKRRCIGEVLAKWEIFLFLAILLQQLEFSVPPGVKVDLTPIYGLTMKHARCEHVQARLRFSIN

CYP 2C9 = CYP 2C9 (Homo sapiens, UniProt P11712); assay: biochemical
Chain of CYP 2C9 (P11712 whole entry): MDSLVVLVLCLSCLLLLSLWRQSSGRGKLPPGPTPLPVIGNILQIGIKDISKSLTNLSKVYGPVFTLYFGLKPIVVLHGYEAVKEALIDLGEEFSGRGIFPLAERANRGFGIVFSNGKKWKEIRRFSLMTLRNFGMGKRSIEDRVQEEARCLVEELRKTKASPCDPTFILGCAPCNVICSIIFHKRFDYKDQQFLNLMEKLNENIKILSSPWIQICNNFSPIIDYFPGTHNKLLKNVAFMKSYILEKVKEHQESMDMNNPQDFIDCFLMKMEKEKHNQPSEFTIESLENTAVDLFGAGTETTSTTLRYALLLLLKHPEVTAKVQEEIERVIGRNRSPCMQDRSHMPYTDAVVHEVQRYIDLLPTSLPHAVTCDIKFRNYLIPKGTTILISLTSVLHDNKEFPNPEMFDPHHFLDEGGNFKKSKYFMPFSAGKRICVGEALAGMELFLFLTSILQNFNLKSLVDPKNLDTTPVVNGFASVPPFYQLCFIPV

CYP 2C8 = CYP 2C8 (Homo sapiens, UniProt P10632); assay: biochemical
Chain of CYP 2C8 (P10632 whole entry): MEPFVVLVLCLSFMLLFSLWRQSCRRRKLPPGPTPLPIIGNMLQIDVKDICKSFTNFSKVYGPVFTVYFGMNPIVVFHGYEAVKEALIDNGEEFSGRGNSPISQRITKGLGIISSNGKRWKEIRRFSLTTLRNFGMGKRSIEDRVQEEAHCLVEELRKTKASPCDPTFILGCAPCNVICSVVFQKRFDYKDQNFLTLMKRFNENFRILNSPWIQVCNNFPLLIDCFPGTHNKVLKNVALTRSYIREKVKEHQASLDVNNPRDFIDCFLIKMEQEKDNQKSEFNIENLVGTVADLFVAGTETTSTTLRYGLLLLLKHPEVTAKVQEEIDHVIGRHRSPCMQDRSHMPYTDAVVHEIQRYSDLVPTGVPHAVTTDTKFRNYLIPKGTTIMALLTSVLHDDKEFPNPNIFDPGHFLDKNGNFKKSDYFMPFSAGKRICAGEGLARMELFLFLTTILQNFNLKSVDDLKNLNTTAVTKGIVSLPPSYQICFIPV

CYP 1A2 [3] = target: T2, CYP 1A2; assay: CYP inhibition, 1A2
CYP 2C19 [4] = target: T1, CYP 2C19; assay: biochemical
CYP 2B6 = CYP 2B6 (Homo sapiens, UniProt P20813); assay: biochemical
Chain of CYP 2B6 (P20813 whole entry): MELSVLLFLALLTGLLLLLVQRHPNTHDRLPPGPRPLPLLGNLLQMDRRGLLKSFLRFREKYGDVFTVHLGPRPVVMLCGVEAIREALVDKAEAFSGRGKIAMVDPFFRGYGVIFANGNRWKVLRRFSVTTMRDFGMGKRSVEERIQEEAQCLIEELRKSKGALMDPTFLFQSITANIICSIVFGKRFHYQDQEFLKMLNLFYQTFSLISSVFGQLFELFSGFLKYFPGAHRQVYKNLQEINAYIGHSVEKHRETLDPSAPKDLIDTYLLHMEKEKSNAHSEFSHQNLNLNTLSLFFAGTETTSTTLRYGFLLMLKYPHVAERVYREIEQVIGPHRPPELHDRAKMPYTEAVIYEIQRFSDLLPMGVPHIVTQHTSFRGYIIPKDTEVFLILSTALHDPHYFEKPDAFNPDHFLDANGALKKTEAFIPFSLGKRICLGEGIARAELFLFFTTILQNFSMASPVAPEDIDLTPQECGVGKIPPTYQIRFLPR

CYP 2D6 = CYP 2D6 (Homo sapiens, UniProt P10635); assay: biochemical
Chain of CYP 2D6 (P10635 whole entry): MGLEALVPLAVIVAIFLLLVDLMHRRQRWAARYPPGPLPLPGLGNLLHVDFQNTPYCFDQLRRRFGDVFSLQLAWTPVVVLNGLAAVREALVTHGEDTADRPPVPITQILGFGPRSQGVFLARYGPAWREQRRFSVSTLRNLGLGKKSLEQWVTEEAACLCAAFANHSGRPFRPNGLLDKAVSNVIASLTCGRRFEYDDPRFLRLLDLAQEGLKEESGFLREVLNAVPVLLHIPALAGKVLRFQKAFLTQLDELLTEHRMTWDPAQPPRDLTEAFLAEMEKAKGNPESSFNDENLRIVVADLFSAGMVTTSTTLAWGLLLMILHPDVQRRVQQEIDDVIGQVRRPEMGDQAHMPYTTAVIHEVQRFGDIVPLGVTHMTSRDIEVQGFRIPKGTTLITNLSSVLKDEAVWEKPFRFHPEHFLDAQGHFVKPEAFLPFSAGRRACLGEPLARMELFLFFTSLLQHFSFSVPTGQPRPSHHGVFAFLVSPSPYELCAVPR

[5] = system: cytochrome P450 enzymes (CYPs); conditions: cited from earlier work
MDCKII cells = assay: MDCKII bidirectional assay; type: in vitro ADME
Source text: MDCKII bidirectional assay was run in collaboration with Dr. Shaun Stauffer in Vanderbilt Institute of Chemical Biology (VICB) synthesis core who is a consultant on this project.

Row | Compound | Number SWDs (Scn1a^+/− mice) | inhibition of 2C19, in words (CYP 2C19 [1]) | appearance and mortality (Scn1a^+/− mice; mouse, in vivo, 300 mg/kg) | IC50 (CYP 1A2 [2]) [µM] | IC50 (CYP 2C9) [µM] | IC50 (CYP 2C8) [µM] | inhibition of 1A2, in words (CYP 1A2 [3]) | IC50 (CYP 2C19 [4]) [µM] | IC50 (CYP 2B6) [µM] | IC50 (CYP 2D6) [µM] | CYP inhibition as reported in the literature [5] | permeability in MDCK II bidirectional assay, in words (MDCKII cells)
1 | CN1C(=O)CN=C(c2ccccc2)c2cc(Cl)ccc21 [Diazepam] | 8 |  |  |  |  |  |  |  |  |  |  | 
2 | CC(C)(C)C(O)/C=C/c1ccc2c(c1)OCO2 (stereo not shown) [Stiripentol] | 11 | potent inhibitor; also recorded: very potent inhibitor | appeared lethargic and had increased mortality | 1.26 | > 10 | > 10 | potent inhibitor; also recorded: very potent inhibitor | 1.84 | 8.82 | > 10 | inhibit CYPs including 1A2, 2C9, 2C19, 2D6 and 3A4 | 
3 | COc1cc(/C=C/C(=O)CC(=O)/C=C/c2ccc(O)c(OC)c2)ccc1O [curcumin, reference compound] |  |  |  |  |  |  |  |  |  |  |  | impermeable
